{"source": "patent US20140357512A1", "about": "“HISTONE DEACETYLASE (HDAC) BIOMARKERS IN MULTIPLE MYELOMA” (priority 2013, published 2014)", "tested_on": "human myeloma cell line MM.1S", "experiment": "SILAC acetylated-lysine peptide profiling, HDAC inhibitor vs DMSO (light/heavy ratio)", "assay_type": "cell-based", "description": "An embodiment of the invention comprises utilizing the SILAC method in order to quantitate changes in protein expression between two or more populations of cells. The SILAC method is a technique based on mass spectrometry that detects differences in protein abundance among samples using non-radioactive isotopic labeling. The SILAC method is known in the art, and described in detail in Ong et al., “Stable Isotope Labeling by Amino Acids in Cell Culture, SILAC, as a Simple and Accurate Approach to Expression Proteomics”, Molecular & Cellular Proteomics, vol. 1, pp. 376-386 (2002), which is incorporated herein by reference in its entirety.\nBriefly, the SILAC method involves growing two populations of cells in cell culture. The first population of cells is grown in growth media containing normal amino acids (“normal media”). The second population of cells is grown in media lacking a standard essential amino acid (such as lysine), but is then supplemented with a non-radioactive, isotopically labeled form of that essential amino acid (such as lysine labeled with ^13C atoms, rather than normal ^12C atoms), which is called “heavy media”. When the two populations of cells are each growing in the medium, they incorporate the amino acids into all of their proteins. The growth of cells maintained in the heavy media is no different from that in normal media. All peptides containing the heavy amino acids are heavier than their normal counterparts. The cells from each of the two populations of cells are lysed. The lysates from each of the two cell populations are then combined. The combined cell lysates are then analyzed by mass spectrometry. Pairs of chemically identical peptides of different stable isotope composition can be differentiated in a mass spectrometer due to their difference in mass. The ratio of peak intensities in the mass spectrum for such peptide pairs reflects the abundance ratio for the two proteins.\nThis example describes SILAC studies that were performed to compare the effects of three different HDAC inhibitors (Compound A, Compound B, and tubastatin A) to a control on a human multiple myeloma cell line. The HDAC inhibitors were also compared amongst themselves to determine differences in their effects.\nA human myeloma cell line MM.1S was grown using either ^12C (light) or ^13C (heavy) lysine containing culture medium. The “heavy” cells were treated with DMSO as the control, and the “light” cells were treated with a single HDAC inhibitor at 37° C. for 6 hours. The heavy and light cells were lysed, and the lysates were mixed in 1:1 ratio and digested with the protease trypsin. The acetylated lysine containing peptides (due to the action of the HDAC inhibitor) in the digested peptide pool were captured by a non-specific anti-acetylated lysine antibody cocktail (the antibodies identify both light and heavy acetylated peptides), and subjected to mass spectrometry analysis in order to identify thousands of individual peptides.\nThousands of peptides were identified in pairs (^12C and ^13C) due to their known mass differences. The amino acid sequence and quantitative ratio (Light/Heavy) of a given peptide in two differentially treated cell lysates were then determined and annotated with their possible protein (gene) sources.\nAs stated above, three HDAC inhibitors (Compound A, Compound B, and Tubastatin A) were used. Thus, the SILAC method was performed three times, with a different HDAC inhibitor compared to a control each time. Accordingly, there are three pairs of quantitative data in the table below, i.e., Compound A:DMSO, Compound B:DMSO, and Tubastatin A:DMSO. A cut-off of 1.30 fold of change (increase or decrease) was then used to determine “changed” or “+” in the table, and any peptides with a fold of change less than 1.3 fold were determined to be “unchanged” or “0” in the table. Those peptides that were not identified were marked as “NA” in the table. […]", "data": [{"smiles": "O=C(CCCCCCNC(=O)c1cnc(N(c2ccccc2)c2ccccc2)nc1)NO", "note": "[Compound A, 2-(diphenylamino)-N-(7-(hydroxyamino)-7-oxoheptyl)pyrimidine-5-carboxamide]", "values": [{"measurement": "light to heavy ratio (L/H ratio) of acetylated peptide FVVEK(ac)AEQQK (SEQ ID NO: 263)", "setting": "Prohibitin [202], PHB, drug:DMSO", "result": 0.42, "unit": "log 2"}, {"measurement": "light to heavy ratio (L/H ratio) of acetylated peptide VYVLK(ac)FK (SEQ ID NO: 520)", "setting": "Proteasomal ubiquitin receptor ADRM1 [97], gene ADRM1, inhibitor:DMSO", "result": "−0.50", "unit": "log 2"}, {"measurement": "light to heavy ratio (L/H ratio) of acetylated peptide FEYK(ac)YSFK (SEQ ID NO: 340)", "setting": "Protein ERGIC-53 [49], LMAN1, drug:DMSO", "result": 0.00, "unit": "log 2"}, {"measurement": "light to heavy ratio (L/H ratio) of acetylated peptide HFAFK(ac)[…] (SEQ ID NO: 554)", "setting": "Protein FAM3C [72], gene FAM3C, inhibitor:DMSO", "result": 0.40, "unit": "log 2"}, {"measurement": "light to heavy ratio (L/H ratio), log 2 scale, acetylated peptide […](ac)PTK (SEQ ID NO: 804)", "setting": "Protein Jade-3 [735], gene PHF16, drug:DMSO", "result": 1.00}, {"measurement": "light to heavy ratio (L/H ratio), log 2 scale, acetylated peptide IANILK(ac)[…] (SEQ ID NO: 803)", "setting": "Protein disulfide-isomerase A4 [109], gene PDIA4, drug:DMSO", "result": 1.00}, {"measurement": "light to heavy ratio (L/H ratio) of acetylated peptide GYPTIK(ac)FFR (SEQ ID NO: 541)", "setting": "Protein disulfide-isomerase [103], gene P4HB, inhibitor:DMSO", "result": 0.39, "unit": "log 2"}, {"measurement": "light to heavy ratio (L/H ratio) of acetylated peptide THILLFLPK(ac)SVSDYDGK (SEQ ID NO: 297)", "setting": "Protein disulfide-isomerase [263], P4HB, drug:DMSO", "result": 0.75, "unit": "log 2"}, {"measurement": "light to heavy ratio (L/H ratio) of acetylated peptide VLVGK(ac)[…] (SEQ ID NO: 303)", "setting": "Protein disulfide-isomerase [375], P4HB, drug:DMSO", "result": 0.99, "unit": "log 2"}, {"measurement": "light to heavy ratio (L/H ratio) of acetylated peptide […](ac)K (SEQ ID NO: 286)", "setting": "Protein disulfide-isomerase [385], P4HB, drug:DMSO", "result": 0.62, "unit": "log 2"}, {"measurement": "light to heavy ratio (L/H ratio), log 2 scale, acetylated peptide VYK(ac)EMYK (SEQ ID NO: 777)", "setting": "Putative annexin A2-like protein [148], gene ANXA2P2, drug:DMSO", "result": 1.00}, {"measurement": "light to heavy ratio (L/H ratio), log 2 scale, acetylated peptide SVPHLQK(ac)VFDR (SEQ ID NO: 776)", "setting": "Putative annexin A2-like protein [227], gene ANXA2P2, drug:DMSO", "result": 1.00}, {"measurement": "light to heavy ratio (L/H ratio) of acetylated peptide SEVDMLK(ac)IR (SEQ ID NO: 295)", "setting": "Putative annexin A2-like protein [302], ANXA2P2, drug:DMSO", "result": 0.71, "unit": "log 2"}, {"measurement": "light to heavy ratio (L/H ratio) of acetylated peptide RMELK(ac)ADQLYK (SEQ ID NO: 275)", "setting": "Pyruvate dehydrogenase E1 component subunit alpha testis-specific form mitochondrial [75], PDHA2, drug:DMSO", "result": 0.51, "unit": "log 2"}, {"measurement": "L/H ratio of acetylated peptide EIDSVK(ac)[…] (SEQ ID NO: 73)", "setting": "RAC2 [153], log 2 scale, drug vs DMSO", "result": 0.00}, {"measurement": "L/H ratio of acetylated peptide (ac)ADK(ac)[…] (SEQ ID NO: 74)", "setting": "RBBP4 [4], log 2 scale, drug vs DMSO", "result": 0.00}, {"measurement": "L/H ratio of acetylated peptide ACFYNLDK(ac)FR (SEQ ID NO: 75)", "setting": "RBM17 [391], log 2 scale, drug vs DMSO", "result": 0.00}, {"measurement": "L/H ratio of acetylated peptide […](ac)SIPTLISR (SEQ ID NO: 76)", "setting": "RCC1 [366], log 2 scale, drug vs DMSO", "result": 0.00}, {"measurement": "L/H ratio of acetylated peptide FIDTTSK(ac)FGHGR (SEQ ID NO: 83)", "setting": "RPL3L [373], log 2 scale, drug vs DMSO", "result": 0.00}, {"measurement": "L/H ratio of acetylated peptide LNILK(ac)LAPGGHVGR (SEQ ID NO: 85)", "setting": "RPL4 [239], log 2 scale, drug vs DMSO", "result": 0.00}, {"measurement": "L/H ratio of acetylated peptide AASLK(ac)SNYNLPMHK (SEQ ID NO: 84)", "setting": "RPL4 [274], log 2 scale, drug vs DMSO", "result": 0.00}, {"measurement": "L/H ratio of acetylated peptide NFLGEK(ac)YIR (SEQ ID NO: 86)", "setting": "RPL9 [121], log 2 scale, drug vs DMSO", "result": 0.00}, {"measurement": "L/H ratio of acetylated peptide TGCIGAK(ac)HR (SEQ ID NO: 77)", "setting": "RPL11 [154], log 2 scale, drug vs DMSO", "result": 0.00}, {"measurement": "L/H ratio of acetylated peptide WFQQK(ac)YDGIILPGK (SEQ ID NO: 78)", "setting": "RPL11 [169], log 2 scale, drug vs DMSO", "result": 0.00}, {"measurement": "L/H ratio of acetylated peptide […](ac)SR (SEQ ID NO: 79)", "setting": "RPL18A [41], log 2 scale, drug vs DMSO", "result": 0.00}, {"measurement": "L/H ratio of acetylated peptide IEHIK(ac)HSK (SEQ ID NO: 80)", "setting": "RPL21, SNORD102, SNORA27, RPL21P19 [97], log 2 scale, drug vs DMSO", "result": 0.00}, {"measurement": "L/H ratio of acetylated peptide YLK(ac)YLTK (SEQ ID NO: 81)", "setting": "RPL22 [84], log 2 scale, drug vs DMSO", "result": 0.00}, {"measurement": "L/H ratio of acetylated peptide INFDK(ac)YHPGYFGK (SEQ ID NO: 82)", "setting": "RPL27A [47], log 2 scale, drug vs DMSO", "result": 0.00}, {"measurement": "L/H ratio of acetylated peptide", "setting": "RPPQTIK(ac)SVR (SEQ ID NO: 492), GDP-D-glucose phosphorylase C15orf58 [113], C15orf58", "result": "−1.00", "unit": "log 2"}, {"measurement": "L/H ratio of acetylated peptide LK(ac)[…] (SEQ ID NO: 89)", "setting": "RPS4X [53], log 2 scale, drug vs DMSO", "result": 0.00}, {"measurement": "L/H ratio of acetylated peptide SFQK(ac)IQVR (SEQ ID NO: 90)", "setting": "RPS7 [74], log 2 scale, drug vs DMSO", "result": 0.00}, {"measurement": "L/H ratio of acetylated peptide ELLTLDEK(ac)DPR (SEQ ID NO: 91)", "setting": "RPS9 [66], log 2 scale, drug vs DMSO", "result": 0.00}, {"measurement": "L/H ratio of acetylated peptide LQTQVFK(ac)LGLAK (SEQ ID NO: 92)", "setting": "RPS9 [116], log 2 scale, drug vs DMSO", "result": 0.00}, {"measurement": "L/H ratio of acetylated peptide […](ac)GK (SEQ ID NO: 87)", "setting": "RPS23 [135], log 2 scale, drug vs DMSO", "result": 0.00}, {"measurement": "L/H ratio of acetylated peptide LAVLK(ac)YYK (SEQ ID NO: 88)", "setting": "RPS27A [104], log 2 scale, drug vs DMSO", "result": 0.00}, {"measurement": "light to heavy ratio (L/H ratio) of acetylated peptide LLNK(ac)HGIK (SEQ ID NO: 528)", "setting": "Ribosomal L1 domain-containing protein 1 [120], gene RSL1D1, inhibitor:DMSO", "result": "−0.43", "unit": "log 2"}]}]}
